Test results reported in patent publication US20240315958A1, “METHOD AND DEVICE FOR PROVIDING EFFECTIVE CONTRACEPTION” (Chemo Research, S.L., priority 2023, published 2024).

Legend:
[1] = tested on: women; conditions: POP; desogestrel 0.075 mg, LNG 0.030 mg; cited from earlier work
[2] = tested on: healthy female subjects aged 18-35 years; assay: Inhibition of ovulation / ovarian activity by Hoogland score, phase 2 clinical trial; type: in vivo, human; conditions: 75 μg/day of levonorgestrel, vaginal
Experimental: The study consists of 4 phases: • Screening phase (minimum of 4 weeks and maximum of 8 weeks if washout cycle was needed). • Pre-treatment cycle (28 days) and randomization. • Treatment cycle consisting of 56 treatment days (2 cycles, 28 days per cycle). • Post-treatment cycle (28 days).
The inhibition of ovulation was determined by the calculation of the Hoogland Score, which combined the measurement of follicle size in mm by TVU and progesterone/estradiol serum concentration in nmol/L (in case an ovulation was suspected sonographically in TC1 or TC2, it was confirmed by blood progesterone levels and reflected by Landgren Score).
Primary endpoint analysis: the inhibition of ovulation (Yes, No), was analyzed through a logistic regression model to compare inhibition of ovulation across treatment groups in which BMI was included as covariate. Adjusted odds ratios (ORs) with their two-sided 95% CI were calculated. No hypothesis testing was performed.

[3] = oral administration; cited from earlier work
[4] = tested on: healthy female subjects aged 18-35 years; assay: Return of ovulation in post-treatment cycle; type: in vivo, human; conditions: FAS; 28-day post-treatment cycle

Compound: C#C[C@]1(O)CC[C@H]2[C@@H]3CCC4=CCCC[C@@H]4[C@H]3C(=C)C[C@@]21CC [desogestrel]
- Cycles with ovulation inhibited [1]: at least 98%

Compound: C#C[C@]1(O)CC[C@H]2[C@@H]3CCC4=CC(=O)CC[C@@H]4[C@H]3CC[C@@]21CC [levonorgestrel]
- Ovulation inhibition [2]: 100%
- Bioavailability [3]: ~100%
- Participants with return of ovulation during post-treatment, % [4]: more than 80%
